# Like-named read-outs stand apart in the source and are kept apart here.
# Legend:
# [1] = tested on: calf thymus DNA; details: literature constant, read-out: KEtBr; cited from earlier work
# [2] = biological target: poly(dGdC); details: poly(dG.dC); literature constant; read-out: KEtBr (converted); cited from earlier work
# [3] = biological target: poly(dAdT); details: poly(dA.dT); literature constant; read-out: KEtBr (converted); cited from earlier work
# [4] = tested on: T4 coliphage DNA; details: literature constant, read-out: KEtBr; cited from earlier work
# [5] = tested on: human chronic myelogenous leukemic K562 cells; assay: growth inhibition of K562 cells (MTT viability assay); format: cell-based; details: for IC50: Homo sapiens, K562, 1 hour drug exposure at 37° C., 5-6 days, MTT; for activity against the growth of K562 cells: in words
# Procedure: The ability of the compounds of the present invention to inhibit the growth of human chronic myelogenous leukemic K562 cells was determined as follows.
# The incubation was terminated by centrifugation (5 minutes, 300 g) and the cells washed once with drug-free medium.
# Following the appropriate drug treatment, the cells were transferred to 96-well microtiter plates, 10^4 cells per well, 8 wells per sample. Plates were then kept in the dark at 37° C. in a humidified atmosphere containing 5% CO2. […] Following incubation of the plates of 5-6 days (to allow control cells to increase in the number by 10 fold) 20 μL of a 5 mg/mL solution of MTT in phosphate buffered saline was added to each well and the plates further incubated for 5 h. The plates were then centrifuged for 5 minutes at 300 g and the bulk of the medium pipetted from the cell pellet leaving 10-20 μL per well. 200 μL DMSO was added to each well and the samples agitated to ensure complete mixing. The optical density was then read at a wavelength of 550 nm on a Titertek Multiscan ELISA plate reader and the dose-response curve constructed.
# [6] = tested on: minor groove of B-DNA; details: cited from earlier work
# [7] = biological target: poly(dAdT); assay: ethidium displacement assay, poly(dAdT); format: binding; details: ± 0.02 × 10^5 M^-1, pH 7.4
# From the text: (§1) The ethidium displacement assay is based on the fact that ethidium binding to DNA causes a large (approximately 25 fold) florescence enhancement as a result of the hydrophobic environment surrounding the ethidium molecule. Displacement of ethidium results in decreased fluorescence, and thus binding constants of drugs to DNA can be estimated and compared by measuring the loss of fluorescence as a function of added drug. The drug concentration which produces 50% inhibition of florescence is approximately inversely proportional to the apparent binding constant.
# (§2) The relative DNA binding constants (Kapp) of distamycin and Compounds 6-10 to calf thymus DNA, T4 coliphage DNA, poly(dAdT) and poly(dGdC) were determined using the ethidium displacement assay (Morgan et al., 1979). The Kapp of ethidium bromide (Debart et al., 1989) is included for comparison. 25 μL of a 2A260 DNA solution was added to 2 mL of ethidium bromide buffer (250 μL of 1.3 mM ethidium bromidestock, 314.9 mg Tris-HCl, 60.8 mg Tris base and 930/mg of Na2 EDTA.2H2 O in 250 ml H2 O) pH 7.4 and the maximum fluorescence was measured (excitation wavelength=546 nm, emission wavelength=600 nm) at ambient temperature.
# (§3) DNA solutions of 2A260 were prepared as follows: T4 coliphage DNA: 10 units of DNA were dissolved in 1 mL of 10 mM sodium phosphate (pH 7.1) and 0.25 mM EDTA buffer to give a 10A260 solution. 0.3 mL of the stock solution were diluted to 1.5 mL with 10 mM sodium phosphate (pH 7.1) and 0.25 mM EDTA buffer to give a 2A260 solution. Calf thymus DNA: 100 units of DNA were dissolved in 5 mL of 10 mM sodium phosphate (pH 7.1) and 0.25 mM EDTA buffer to give a 20A260 solution. 1.5 mL of the stock solution were diluted to 15 mL with 10 mM sodium phosphate (pH 7.1) and 0.25 mM EDTA buffer to give a 2A260 solution. Poly(dA-dT) and Poly(dG-dC) DNA: 100 units of DNA were dissolved in 10 mL of 10 mM sodium phosphate pH 7.1) and 0.25 mM EDTA buffer to give a 10A260 solution. 3 mL of the stock solution were diluted to 15 mL with 10 mM sodium phosphate (pH 7.1) and 0.25 mM EDTA buffer to give a 2A260 solution.
# (§4) Aliquots of 10 mM stock drug solution (1 mg of drug to be tested was dissolved with 1 mole equivalent of 0.1M HCl, and then diluted with appropriate volume of distilled water to make a 10 mM solution) were then added to the fluorescing solution and the florescence measured after each addition until a 50% reduction of fluorescence occurred. If the 10 mM stock solution lowered the % fluorescence too quickly, the stock solution was further diluted to 1 mM prior to titration. The apparent binding constant was then calculated from this equation: KEtBr [EtBr]=Kapp [drug], where [drug]=the concentration of drug at a 50% reduction of fluorescence and KEtBr [1×10^7 M^-1 for calf thymus and coliphage T4 DNA^18, 9.5×10^6 M^-1 for poly(dA.dT)^30, and 9.9×10^6 M^-1 for poly(dG.dC)^30 ] and [EtBr] were known. The concentration of ethidium bromide was 1.3 μM. The Kapp values are shown in Table I. In a separate experiment, the Kapp of Compound 5 for calf thymus DNA and poly[dGdC] were determined to be 0.3×10^5 M^-1 and 2.6×10^5 M^-1, respectively. The error in these measurements is ±[…].
# [8] = tested on: T4 coliphage DNA; assay: ethidium displacement assay, T4 coliphage DNA; format: binding; details: ± 0.02 × 10^5 M^-1, pH 7.4
# From the text: as §1
# The apparent binding constants for T4 coliphage DNA are an indicator of the minor groove selectivity of the compounds of the present invention. The major groove of T4 coliphage DNA is blocked by α-glycosylation of the 5-hydroxymethylcytidine residues; therefore, the non-intercalating agents that bind to T4 coliphage DNA must interact in the minor groove [Lown (1982) Acc. Chem. Res., 15, 381].
# as §2, §3, §4
# [9] = tested on: calf thymus DNA; assay: ethidium displacement assay, calf thymus DNA; format: binding
# From the text: as §1, §2, §3, §4
# [10] = biological target: poly(dGdC); assay: ethidium displacement assay, poly(dGdC); format: binding
# From the text: as §1, §2, §3, §4
# [11] = tested on: calf thymus DNA; assay: UV-dialysis study (covalent retention on DNA); format: binding; details: 24 h incubation at room temperature; 20-26 hours dialysis; pH 7.1
# From the text: The compounds of the present invention are useful as anticancer agents. Although the biological mechanism which results in anticancer activity is not fully understood, the compounds of the subject invention are capable of binding to the minor groove of double-stranded DNA and, unlike distamycin and netropsin, can tolerate GC-containing DNA. Accordingly, the DNA alkylating moiety of the compounds of the present invention can be directed to the minor groove of GC-containing regions of double-stranded DNA. One of ordinary skill in the art can determine the DNA alkylating ability of the compounds of the present invention by art-recognized methods. The formation of an irreversible adduct of DNA and a compound of the present invention is defined herein as a measure of the DNA alkylating ability of the subject compounds. The formation of an irreversible adduct can be determined by art-recognized methods. For example, a solution containing DNA and a compound of the present invention can be exhaustively dialyzed under conditions which allow unbound drug to pass out of the dialysis bag. The percentage of the compound which has been retained in the dialysis bag is considered to be covalently bound to the DNA, and is determined by comparing the UV absorption spectrum of the compound/DNA solution before and after exhaustive dialysis.
# 0.5 mL of 2A260 calf thymus DNA was diluted to 2 mL with 10 mM sodium phosphate and 0.25 mM EDTA buffer, pH 7.1. Four aliquots (3 μL each) of a 1 mM stock drug solution in distilled water were added to the DNA solution and a UV absorption spectrum (300-320) was recorded after each addition. The drug/DNA solution was incubated for 24 h at room temperature and another UV spectrum was recorded. The drug/DNA solution was then transferred into a dialysis bag and the dialysis bag was suspended in 30 mL of 10 mM sodium phosphate and 0.25 mM EDTA buffer, pH, 7.1, at room temperature. After 20-26 hours, the […] spectrum of 2 mL of the buffer outside the dialysis bag was recorded. The absorbance of the drug peak was converted to concentration by the Beer-Lambert equation, and the data was presented as percent initial concentration. Under these conditions, substantial amounts of Compounds 6 (55±5%), 7 (45±5%), 8 (85±5%) and 10 (100±5%) are retained in the dialysis bag, while only 29±5% of a formamido analog^1 is retained.
smiles,measurement,setting,value
"CC[n+]1c(-c2ccccc2)c2cc(N)ccc2c2ccc(N)cc21 [EtBr, ethidium bromide]",Kd,[1],0.1 µM
same,Kd,[2],0.101 µM
same,Kd,[3],0.105 µM
same,Kd,[4],0.1 µM
"CN(C)CCNC(=O)c1nc(NC(=O)c2nc(NC(=O)CCl)cn2C)cn1C [Compound 11, N-(N',N'-dimethylaminoethyl)-1-methyl-4-[4-(chloroacetamido)-1-methylimidazole-2-carboxamido)imidazole-2-carboxamide]",IC50,[5],350 µM
"CN(C)CCNC(=O)c1nc(NC(=O)c2nc(NC(=O)CBr)cn2C)cn1C [Compound 12, N-(N',N'-dimethylaminoethyl)-1-methyl-4-[4-(bromoacetamido)-1-methylimidazole-2-carboxamido]imidazole-2-carboxamide]",IC50,[5],400 µM
"Cn1cc(NC(=O)c2cc(NC(=O)c3cc(NC=O)cn3C)cn2C)cc1C(=O)NCCC(=N)N [Distamycin, distamycin]",specific nucleotide sequence bound / preferred,[6],(AT)5
same,Association constant Kapp,[7],3.48e+07 M⁻¹
same,Association constant Kapp,[8],640000 M⁻¹
same,Association constant Kapp,"[9]; ± 0.02 × 10^5 M^-1, pH 7.4",774000 M⁻¹
same,Association constant Kapp,"[10]; poly(dGdC), ± 0.02 × 10^5 M^-1, pH 7.4",203000 M⁻¹
CN(C)CCNC(=O)c1nc(NC(=O)c2nc(NC=O)cn2C)cn1C [Compound 14],IC50,[5],> 500 µM
same,activity against the growth of K562 cells,[5],no activity
"CN(C)NC(=O)c1nc(NC(=O)c2nc(NC(=O)c3ccc(N(CCCl)CCCl)cc3)cn2C)cn1C [Compound 5, N-(N',N'-dimethylamino)-1-methyl-4-{4-[4,4-bis(2-chloroethyl)aminobenzamido]-1-methylimidazole-2-carboxamido}imidazole-2-carboxamide]",Kd,"[9]; separate experiment, read-out: Kapp (converted)",33.3 µM
same,Kd,"[10]; poly[dGdC], separate experiment, read-out: Kapp (converted)",3.85 µM
"CN(C)CCNC(=O)c1nc(NC(=O)c2nc(NC(=O)c3nc(NC=O)cn3C)cn2C)cn1C [Compound 15, N-(N',N'-dimethylaminoethyl)-1-methyl-4-{1-methyl-4-[4-formamido-2-methylimidazole-2-carboxamido]imidazole-2-carboxamido}imidazole-2-carboxamide]",retained in the dialysis bag (percent initial concentration),[11],29±5%
same,IC50,[5],> 500 µM
same,activity against the growth of K562 cells,[5],no activity
"Cn1cc(NC(=O)c2cc(NC(=O)CN=C(N)N)cn2C)cc1C(=O)NCCC(=N)N [Netropsin, netropsin]",specific nucleotide sequence bound / preferred,[6],(AT)4
CN(C)NC(=O)c1nc(NC(=O)c2nc(NC=O)cn2C)cn1C [Compound 13],IC50,[5],> 500 µM
same,activity against the growth of K562 cells,[5],no activity
